# Biological target: T1, mouse PPARγ ligand-binding site (Mus musculus, UniProt P37238)
# T1 construct: expressed in transfected cells; host or cells: CV-1 cells (African green monkey kidney)
# T1 sequence (P37238 174-475 isoform P37238-2): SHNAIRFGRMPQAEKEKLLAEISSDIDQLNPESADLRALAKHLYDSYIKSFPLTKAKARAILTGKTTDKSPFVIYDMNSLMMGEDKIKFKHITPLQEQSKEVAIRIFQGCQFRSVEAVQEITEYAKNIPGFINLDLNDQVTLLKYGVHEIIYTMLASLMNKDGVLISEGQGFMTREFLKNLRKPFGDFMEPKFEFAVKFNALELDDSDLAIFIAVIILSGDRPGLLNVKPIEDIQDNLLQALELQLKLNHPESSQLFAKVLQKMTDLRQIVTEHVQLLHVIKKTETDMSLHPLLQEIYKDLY
# Assay: Measurement of PPARγ ligand activity (GAL4 chimera luciferase reporter in CV-1 cells)
# Assay type: cell-based
# Details: for PPARγ ligand activity: CV-1 cells, 24 hours, specific activity relative to untreated control (DMSO) = 1.00; for PPARγ ligand activity compared with positive control troglitazone (in words): compared with 0.5 μM troglitazone
# Description: CV-1 cells (cultured cells derived from the kidney of a male African green monkey) were inoculated on a 96-well culture plate in a concentration of 6×10^3 cells/well and incubated at 37° C. in 5% CO2 for 24 hours. The medium used was DMEM (Dulbecco's Modified Eagle Medium: GIBCO) containing 10% FBS (fetal bovine serum), 10 ml/L penicillin and streptomycin solution (containing 5000 IU/ml and 5,000 μg/ml, respectively: GIBCO) and 37 mg/L ascorbic acid (Wako Pure Chemical Industries, Ltd.). […] 4xUASg-luc is a reporter plasmid comprising four GAL4 response sequences (UASg) integrated into a region upstream of a luciferase gene. At about 24 hours after transfection, the medium was exchanged with a sample-containing medium, and the cells were cultured for 24 hours (n=4). The sample-containing medium was prepared by dissolving a sample in dimethyl sulfoxide (DMSO) in an amount of 1/1000 based on the medium, while for the untreated control, DMSO in an amount of 1/1000 based on the medium was used in place of the sample. After the cells were washed with a Ca- and Mg-containing phosphate buffered physiological saline (PBS+), LucLite (Packard) was added thereto, and the intensity of luciferase luminescence was measured with a TopCount microplate scintillation/luminescence counter (Packard).
# As the control group, pM (plasmid from which the PPARγ ligand-binding site gene was removed) was measured in place of pM-mPPARγ in the same manner as for the measurement group. For each sample, the ratio (measurement group/control group) of the average luminescence intensity of the measurement group (n=4) to that of the control group was calculated, and the specific activity relative to the activity of the untreated control was regarded as the PPARγ ligand activity of the sample.
PPARγ ligand activity (added concentration 2 μg/ml),PPARγ ligand activity (added concentration 5 μg/ml),PPARγ ligand activity (added concentration 10 μg/ml),SMILES,PPARγ ligand activity compared with positive control troglitazone (in words)
1.45,2.35,2.49,"COc1cc(O)ccc1/C=C/C(=O)c1ccc(O)cc1 [Compound 5, Echinatin]",
1.27,1.93,1.61,"COc1c(/C=C/C(=O)c2ccc(O)cc2)ccc(O)c1O [Compound 25, Licochalcone B]",slightly weaker than that of a positive control containing 0.5 μM troglitazone
0.97,0.95,0.97,"CC1(C)[C@@H](O)CC[C@]2(C)[C@H]3C(=O)C=C4[C@@H]5C[C@@](C)(C(=O)O)CC[C@]5(C)CC[C@@]4(C)[C@]3(C)CC[C@@H]12 [Glycyrrhetinic acid, glycyrrhetinic acid, reference compound]",not recognized to have a PPARγ ligand activity
1.67,2.53,3.75,"CC(C)=CCc1c(O)cc(O)c2c(=O)c(-c3ccc(O)cc3)coc12 [Compound 10, Lupiwighteone]",
1.78,3.05,3.20,"CC(C)=CCc1cc(-c2coc3cc(O)cc(O)c3c2=O)cc(O)c1O [Compound 17, Glycyrrhisoflavone]",
2.90,3.73,4.41,"COc1c2c(cc(O)c1CC=C(C)C)OCC(c1ccc(O)cc1O)=C2 [Compound 7, Dehydroglyasperin C]",
1.61,2.46,1.69,"COc1ccc(C2COc3c(ccc4c3C=CC(C)(C)O4)C2)c(O)c1O (centres unmarked) [Compound 22, 3′-Hydroxyl-4′-O-methylglabridin]",
1.86,2.37,3.47,"COc1c(-c2ccc(O)cc2)oc2cc(O)cc(O)c2c1=O [Compound 14, Kaempferol3-O-methylester]",
1.25,1.55,2.13,"COc1ccc(C2COc3c(ccc4c3C=CC(C)(C)O4)C2)c(O)c1 (centres unmarked) [Compound 21, 4′-O-Methylglabridin]",
1.84,2.20,3.71,"COc1c(/C=C/C(=O)c2ccc(O)cc2)ccc(O)c1CC=C(C)C [Compound 26, Licochalcone C]",
1.73,2.50,3.82,"CC(C)=CCc1cc(-c2oc3cc(O)cc(O)c3c(=O)c2O)ccc1O [Compound 6, Isolicoflavonol]",
4.02,4.14,4.16,"C=CC(C)(C)c1cc(/C=C/C(=O)c2ccc(O)cc2)c(OC)cc1O [Compound 24, Licochalcone A]",

# Further lines, the molecule ahead of its results:
SMILES,PPARγ ligand activity (added concentration 2 μg/ml),PPARγ ligand activity (added concentration 5 μg/ml),PPARγ ligand activity (added concentration 10 μg/ml),PPARγ ligand activity compared with positive control troglitazone (in words)
"COc1c(CC=C(C)C)c(O)cc2oc(=O)c(-c3ccc(O)cc3O)cc12 [Compound 1, Glycycoumarin]",2.03,2.79,3.82,
"COc1cc2c(c(OC)c1CC=C(C)C)C=C(c1ccc(O)cc1O)CO2 [Compound 4, 3-(2′,4′-dihydroxyphenyl)-6-(3″,3″-dimethylallyl)-5,7-dimethoxy-2H-chromene]",2.95,3.72,4.00,
"CC1(C)C=Cc2c(ccc3c2OC[C@@H](c2ccc(O)cc2O)C3)O1 [Compound 18, Glabridin]",1.64,2.15,1.98,
"CC1(C)C=Cc2c(ccc(C3COc4c(ccc5c4C=CC(C)(C)O5)C3)c2O)O1 (centres unmarked) [Compound 20, Hispaglabridin B]",1.04,1.45,1.94,slightly weaker than that of a positive control containing 0.5 μM troglitazone
"COc1c(-c2ccc(O)cc2)oc2cc(O)c(CC=C(C)C)c(O)c2c1=O [Compound 16, Topazolin]",2.56,3.64,5.84,
"O=C(/C=C/c1ccc(O)cc1)c1ccc(O)cc1O [Compound 13, Isoliquiritigenin]",1.47,2.71,3.39,
"COc1cc2c(c(O)c1CC=C(C)C)C(=O)C(c1ccc(O)cc1O)CO2 (centres unmarked) [Compound 8, Glyasperin B]",2.60,3.53,3.02,
"CC(C)=CCc1cc(C(=O)CC(=O)c2cc(CC=C(C)C)c(O)cc2O)ccc1O [Compound 27, Glycyrdione A]",1.44,2.49,3.05,
"CC1(C)C=Cc2cc(-c3coc4cc(O)cc(O)c4c3=O)cc(O)c2O1 [Compound 12, Semilicoisoflavone B]",1.86,2.66,3.15,
"O=c1c(O)c(-c2ccc(O)c(O)c2)oc2cc(O)cc(O)c12 [Quercetin, quercetin, reference compound]",1.15,1.72,1.70,not recognized to have a PPARγ ligand activity
"CC1(C)C=Cc2c(O)ccc(C3=Cc4ccc(O)cc4OC3)c2O1 [Compound 19, Glabrene]",1.78,3.44,2.89,
"COc1cc2c(c(OC)c1CC=C(C)C)CC(c1ccc(O)cc1O)CO2 (centres unmarked) [Compound 11, Glyasperin D]",3.22,3.28,4.06,
"CC(C)=CCc1cc(C(=O)CC(=O)c2cc3c(cc2O)OC(C)(C)C=C3)ccc1O [Compound 28, Glycyrdione C]",0.96,1.48,2.04,slightly weaker than that of a positive control containing 0.5 μM troglitazone
"COc1cc(O)cc2c1C(=O)C(c1cc(O)c3c(c1)C=CC(C)(C)O3)CO2 (centres unmarked) [Compound 9, Glycyrrhisoflavanone]",2.01,3.45,4.68,
"CC(C)=CCc1cc([C@@H]2CC(=O)c3ccc(O)c(CC=C(C)C)c3O2)ccc1O [Compound 23, Glabrol]",1.85,3.48,3.74,
"CC(C)=CCc1c(O)cc2oc(-c3ccc(O)cc3)c(O)c(=O)c2c1O [Compound 15, Licoflavonol]",1.44,2.27,4.07,
"CC(C)=CCc1cc(-c2coc3c(CC=C(C)C)c(O)cc(O)c3c2=O)cc(O)c1O [Compound 3, Glyurallin B]",1.28,1.96,2.73,
